Test systems include CCRF-CEM leukemia; HCT-116 colon; HCT-15 colon; HL-60(TB) leukemia; HOP-62 NSCLC; NCI-H226 lung; NCI-H460 lung; OVCAR-5 ovarian; RXF 393 renal; SR leukemia.
Holding throughout (experiment): NCI tumour cell line growth inhibition, 48 h

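Results reflect a 48-hour exposure of cells in 96-well plates to compound at five concentrations. TGI: concentration producing complete growth inhibition.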

On to `O=C1CCSSCCC(=O)NCCN1`, for which the TGI in the assay on CCRF-CEM leukemia, with HCT-116 colon, with HCT-15 colon, with HL-60(TB) leukemia, in the assay on HOP-62 NSCLC and in the assay with NCI-H226 lung was over 100 µM throughout. The TGI in the assay on NCI-H460 lung, with OVCAR-5 ovarian, in the assay with RXF 393 renal and in the assay on SR leukemia was over 100 µM each time.
With `C=C1[C@@H](O)C[C@@]23CC[C@@H]4[C@@]5(C)CC[C@@H](OC(C)=O)C(C)(C)[C@@H]5C[C@@H](OC5OC(COC(C)=O)C(O)C(O)C5O)[C@@]4(C)C2=CC[C@H]3[C@H]1C` (stereo not given in full), the TGI is 9.82 µM in the assay with CCRF-CEM leukemia; 10.7 µM in the assay with HCT-116 colon; 27.8 µM in the assay with HCT-15 colon; 4.86 µM with HL-60(TB) leukemia; 25.8 µM in the assay on HOP-62 NSCLC; 17.4 µM with NCI-H226 lung. Also, the TGI with NCI-H460 lung came out at 17.2 µM; in the assay with OVCAR-5 ovarian, 7.08 µM; with RXF 393 renal, 18.7 µM; in the assay on SR leukemia it was 5.07 µM.
In the case of `CCSC1=CC(=O)c2nc3ccccc3c3ccnc1c23`, the TGI was over 25.9 µM with CCRF-CEM leukemia; over 25.1 µM with HCT-116 colon; 7.37 µM in the assay with HCT-15 colon; 7.74 µM in the assay on HL-60(TB) leukemia; over 51.3 µM in the assay on HOP-62 NSCLC; 27.1 µM in the assay on NCI-H226 lung. In addition, the TGI in the assay on NCI-H460 lung is 23.8 µM; in the assay with OVCAR-5 ovarian, 15 µM; in the assay with RXF 393 renal, 18.2 µM; in the assay with SR leukemia it was 15.5 µM.
Take `CCN(CC)CCOC(NC(C)=O)(c1ccccc1)c1ccccc1`: the TGI in the assay on CCRF-CEM leukemia, in the assay on HCT-116 colon, in the assay with HCT-15 colon, with HL-60(TB) leukemia, in the assay on HOP-62 NSCLC and with NCI-H226 lung was over 100 µM throughout. Also, the TGI with NCI-H460 lung, in the assay with OVCAR-5 ovarian, in the assay with RXF 393 renal and in the assay with SR leukemia was over 100 µM in each case.
As for `CC1(C)C(c2ccccc2)=[N+]([O-])C(C)(C)N1O`, the TGI in the assay with CCRF-CEM leukemia, in the assay on HCT-116 colon, in the assay on HCT-15 colon, in the assay on HL-60(TB) leukemia, with HOP-62 NSCLC and with NCI-H226 lung was over 10 µM throughout. Also, the TGI in the assay with NCI-H460 lung, in the assay on OVCAR-5 ovarian, in the assay with RXF 393 renal and with SR leukemia was over 10 µM in each case.
For the compound `CC(C)=C[C@@H]1C[C@H](n2cc(C)c(=O)[nH]c2=O)ON1CCO`, the TGI in the assay with CCRF-CEM leukemia, in the assay on HCT-116 colon, in the assay on HCT-15 colon, with HL-60(TB) leukemia, in the assay on HOP-62 NSCLC and in the assay with NCI-H226 lung was over 100 µM in each case. Moreover, the TGI in the assay on NCI-H460 lung, in the assay with OVCAR-5 ovarian, in the assay with RXF 393 renal and in the assay with SR leukemia was over 100 µM in each case.
In the case of `Cc1ccccc1OC(C)C(=O)NN1C(=O)CC(=O)N(c2ccc(Cl)cc2)C1=S` (stereo not given), the TGI is 57 µM in the assay on CCRF-CEM leukemia; 53 µM in the assay with HCT-116 colon; over 100 µM in the assay on HCT-15 colon; 39.8 µM with HL-60(TB) leukemia; over 100 µM in the assay with HOP-62 NSCLC; over 100 µM in the assay on NCI-H226 lung. For the same compound, the TGI with NCI-H460 lung was over 100 µM; in the assay with OVCAR-5 ovarian, over 100 µM; in the assay with RXF 393 renal it was 78.3 µM; in the assay on SR leukemia it was 84.1 µM.
Consider `COC(=O)NN(C(=O)OC)c1c(-c2ccccc2)nc(SC)n1N`, for which the TGI with CCRF-CEM leukemia, with HCT-116 colon, in the assay on HCT-15 colon, with HL-60(TB) leukemia, in the assay on HOP-62 NSCLC and in the assay with NCI-H226 lung was over 100 µM throughout. Moreover, the TGI in the assay with NCI-H460 lung, in the assay with OVCAR-5 ovarian, in the assay on RXF 393 renal and in the assay with SR leukemia was over 100 µM each time.
In the case of `CSCCC(NCc1c(O)ccc2c(-c3ccccc3)cc(=O)oc12)C(=O)O` (stereo not given), the TGI in the assay with CCRF-CEM leukemia, in the assay on HCT-116 colon, in the assay on HCT-15 colon, in the assay on HL-60(TB) leukemia, in the assay with HOP-62 NSCLC and with NCI-H226 lung was over 100 µM each time. Further, the TGI in the assay on NCI-H460 lung, in the assay on OVCAR-5 ovarian, with RXF 393 renal and in the assay on SR leukemia was over 100 µM each time.
Take `COc1cc2c(cc1OC)C1c3ccccc3CCN1CC2` (stereo not given): the TGI in the assay on CCRF-CEM leukemia is over 100 µM; with HCT-116 colon it was over 100 µM; in the assay on HCT-15 colon, over 100 µM; in the assay with HL-60(TB) leukemia it was 80.3 µM; in the assay on HOP-62 NSCLC, over 100 µM; in the assay with NCI-H226 lung, 96.1 µM. The TGI with NCI-H460 lung, with OVCAR-5 ovarian, in the assay with RXF 393 renal and with SR leukemia was over 100 µM each time.
On to `COc1cccc(-c2cc(=O)c3c(C)cc(C)nc3[nH]2)c1`, for which the TGI in the assay on CCRF-CEM leukemia is 2.87 µM; in the assay with HCT-116 colon, over 59.9 µM; with HCT-15 colon it was over 45.5 µM; with HL-60(TB) leukemia it was 0.505 µM; in the assay on HOP-62 NSCLC it was over 65.1 µM; in the assay on NCI-H226 lung it was 9.09 µM. Besides, the TGI with NCI-H460 lung was over 42.1 µM; in the assay with OVCAR-5 ovarian it was over 100 µM; in the assay on RXF 393 renal, over 100 µM; with SR leukemia it was 0.513 µM.

(Values after PubChem BioAssay (NCI).)
